Data as given in ChEMBL document CHEMBL3132750, “4-Chlorocolchicine derivatives bearing a thiourea side chain at the C-7 position as potent anticancer agents” (Medchemcomm, 2014).

How the values were obtained:
Mus musculus [1] = assay: Toxicity in human HCT116 cells xenografted in BALB/C nude mouse assessed as weight loss at 10 mg/kg, iv administered three times on days 1, 5, and 9; assay type: organism-based, HCT-116; set-up: dose 10 mg/kg, route intravenous; conditions: in vivo
Mus musculus [2] = assay: Toxicity in human HCT116 cells xenografted in BALB/C nude mouse assessed as weight loss at 20 mg/kg, iv administered three times on days 1, 5, and 9; assay type: organism-based, HCT-116; set-up: dose 20 mg/kg, route intravenous; conditions: in vivo
Mus musculus [3] = assay: Toxicity in human HCT116 cells xenografted in BALB/C nude mouse assessed as mouse mortality at 10 mg/kg, iv administered three times on days 1, 5, and 9; assay type: organism-based, HCT-116; set-up: dose 10 mg/kg, route intravenous; conditions: in vivo
Mus musculus [4] = assay: Toxicity in human HCT116 cells xenografted in BALB/C nude mouse assessed as mouse mortality at 20 mg/kg, iv administered three times on days 1, 5, and 9; assay type: organism-based, HCT-116; set-up: dose 20 mg/kg, route intravenous; conditions: in vivo
HCT-116 [5] = assay: Antitumor activity against human HCT116 cells xenografted in BALB/C nude mouse assessed as tumor growth inhibition rate at 10 mg/kg, iv administered three times on days 1, 5, and 9; assay type: functional; conditions: read-out: TGI
HCT-116 [6] = assay: Antitumor activity against human HCT116 cells xenografted in BALB/C nude mouse assessed as tumor growth inhibition rate at 20 mg/kg, iv administered three times on days 1, 5, and 9; assay type: functional; conditions: read-out: TGI
[7] = Metabolic stability in BALB/c mouse hepatic microsomes assessed per mg of microsomal protein at 1 umol/L preincubated for 5 mins by LC-MS/MS method; assay type: ADME, Liver, Microsome; conditions: 1 µM
HCT-116 [8] = assay: Cytotoxicity against human HCT116 cells assessed as inhibition of cell proliferation after 96 hrs; assay type: functional, cell-based; conditions: HCT-116, 96 h
HT-29 = assay: Cytotoxicity against human HT-29 cells assessed as inhibition of cell proliferation after 96 hrs; assay type: functional, cell-based; conditions: HT-29, 96 h
A549 = assay: Cytotoxicity against human A549 cells assessed as inhibition of cell proliferation after 96 hrs; assay type: functional, cell-based; conditions: A549, 96 h
Mus musculus [9] = assay: Toxicity in human HCT116 cells xenografted in BALB/C nude mouse assessed as weight loss at 50 mg/kg, iv administered three times on days 1, 5, and 9; assay type: organism-based, HCT-116; set-up: dose 50 mg/kg, route intravenous; conditions: in vivo
Mus musculus [10] = assay: Toxicity in human HCT116 cells xenografted in BALB/C nude mouse assessed as weight loss at 25 mg/kg, iv administered three times on days 1, 5, and 9; assay type: organism-based, HCT-116; set-up: dose 25 mg/kg, route intravenous; conditions: in vivo
Mus musculus [11] = assay: Toxicity in human HCT116 cells xenografted in BALB/C nude mouse assessed as mouse mortality at 50 mg/kg, iv administered three times on days 1, 5, and 9; assay type: organism-based, HCT-116; set-up: dose 50 mg/kg, route intravenous; conditions: in vivo
Mus musculus [12] = assay: Toxicity in human HCT116 cells xenografted in BALB/C nude mouse assessed as mouse mortality at 25 mg/kg, iv administered three times on days 1, 5, and 9; assay type: organism-based, HCT-116; set-up: dose 25 mg/kg, route intravenous; conditions: in vivo
HCT-116 [13] = assay: Antitumor activity against human HCT116 cells xenografted in BALB/C nude mouse assessed as tumor growth inhibition rate at 50 mg/kg, iv administered three times on days 1, 5, and 9; assay type: functional; conditions: read-out: TGI
HCT-116 [14] = assay: Antitumor activity against human HCT116 cells xenografted in BALB/C nude mouse assessed as tumor growth inhibition rate at 25 mg/kg, iv administered three times on days 1, 5, and 9; assay type: functional; conditions: read-out: TGI
Tubulin = Tubulin (Sus scrofa, UniProt P02554+P02550); assay: Inhibition of tubulin polymerization assessed as reduction in tubulin assembly after 5 mins using pig microtubule protein by spectrophotometry; assay type: protein assay
Mus musculus [15] = assay: Toxicity in human HCT116 cells xenografted in BALB/C nude mouse assessed as weight loss at 40 mg/kg, iv administered three times on days 1, 5, and 9; assay type: organism-based, HCT-116; set-up: dose 40 mg/kg, route intravenous; conditions: in vivo
Mus musculus [16] = assay: Toxicity in human HCT116 cells xenografted in BALB/C nude mouse assessed as mouse mortality at 40 mg/kg, iv administered three times on days 1, 5, and 9; assay type: organism-based, HCT-116; set-up: dose 40 mg/kg, route intravenous; conditions: in vivo
HCT-116 [17] = assay: Antitumor activity against human HCT116 cells xenografted in BALB/C nude mouse assessed as tumor growth inhibition rate at 40 mg/kg, iv administered three times on days 1, 5, and 9; assay type: functional; conditions: read-out: TGI

| SMILES | Activity (Mus musculus [1]) | Activity (Mus musculus [2]) | Activity (Mus musculus [3]) | Activity (Mus musculus [4]) | inhibition in vivo at 10 mg/kg (HCT-116 [5]) | inhibition in vivo at 20 mg/kg (HCT-116 [6]) | Intrinsic clearance [7] | IC50 (HCT-116 [8]) | IC50 (HT-29) | IC50 (A549) | Activity (Mus musculus [9]) | Activity (Mus musculus [10]) | Activity (Mus musculus [11]) | Activity (Mus musculus [12]) | inhibition in vivo at 50 mg/kg (HCT-116 [13]) | inhibition in vivo at 25 mg/kg (HCT-116 [14]) | IC50 (Tubulin) | Activity (Mus musculus [15]) | Activity (Mus musculus [16]) | inhibition in vivo at 40 mg/kg (HCT-116 [17]) |
| --- | --- | --- | --- | --- | --- | --- | --- | --- | --- | --- | --- | --- | --- | --- | --- | --- | --- | --- | --- | --- |
| COc1c(Cl)c2c(c(OC)c1OC)-c1ccc(OC)c(=O)cc1[C@@H](NC(=S)Nc1ccc(N(C)C)cc1)CC2 | Non-toxic | Non-toxic | Non-toxic | Non-toxic | 32.6% | 52.5% | 152 µL/min/mg | 1.1 nM | 0.3 nM | 1.8 nM | – | – | – | – | – | – | – | – | – | – |
| CCN(CC)C(=S)N[C@H]1CCc2c(Cl)c(OC)c(OC)c(OC)c2-c2ccc(OC)c(=O)cc21 | – | – | – | – | – | – | 541 µL/min/mg | 6.9 nM | 6.1 nM | 10.1 nM | Non-toxic | Non-toxic | Non-toxic | Non-toxic | 54.6% | 29.5% | – | – | – | – |
| CCNC(=S)N[C@H]1CCc2c(Cl)c(OC)c(OC)c(OC)c2-c2ccc(OC)c(=O)cc21 | – | Non-toxic | – | Non-toxic | – | 44.4% | 124 µL/min/mg | 7.9 nM | 8.6 nM | 37.9 nM | – | – | – | – | – | – | 2360 nM | Non-toxic | Non-toxic | 62.6% |
| COc1c(Cl)c2c(c(OC)c1OC)-c1ccc(OC)c(=O)cc1[C@@H](NC(=S)N1CCOCC1)CC2 | – | – | – | – | – | – | 61 µL/min/mg | 9.1 nM | 7.2 nM | 44.9 nM | Non-toxic | Non-toxic | Non-toxic | Non-toxic | 52.7% | 31.3% | – | – | – | – |
